We go through seven molecules from ChEMBL document CHEMBL5465560, “Selectivity Literature for EUbOPEN Chemogenomic Library” (2024).

The target of one experiment is Activated CDC42 kinase 1 (Homo sapiens, UniProt Q07912). Put plainly: Selectivity interaction (Kinase panel (Carna Biosciences)) EUB0001542aTs TNK2. As to conditions: at 1 µM.
The target of experiment [1] is Tyrosine-protein kinase Lck (Homo sapiens, UniProt P06239). Nature of the experiment: Selectivity interaction (Kinase panel (KiNativ target engagement assay in Jurkat cells)) EUB0001635a LCK. The format is cell-based. As to conditions: Selectivity number of off-targets 0.0, Selectivity number of targets 233.0, Source Knowledge https://www.sciencedirect.com/science/article/pii/S2451945619300674?via%3Dihub, at 1 µM.
Tyrosine-protein kinase Lck, sequence (P06239 2-509 limits assumed): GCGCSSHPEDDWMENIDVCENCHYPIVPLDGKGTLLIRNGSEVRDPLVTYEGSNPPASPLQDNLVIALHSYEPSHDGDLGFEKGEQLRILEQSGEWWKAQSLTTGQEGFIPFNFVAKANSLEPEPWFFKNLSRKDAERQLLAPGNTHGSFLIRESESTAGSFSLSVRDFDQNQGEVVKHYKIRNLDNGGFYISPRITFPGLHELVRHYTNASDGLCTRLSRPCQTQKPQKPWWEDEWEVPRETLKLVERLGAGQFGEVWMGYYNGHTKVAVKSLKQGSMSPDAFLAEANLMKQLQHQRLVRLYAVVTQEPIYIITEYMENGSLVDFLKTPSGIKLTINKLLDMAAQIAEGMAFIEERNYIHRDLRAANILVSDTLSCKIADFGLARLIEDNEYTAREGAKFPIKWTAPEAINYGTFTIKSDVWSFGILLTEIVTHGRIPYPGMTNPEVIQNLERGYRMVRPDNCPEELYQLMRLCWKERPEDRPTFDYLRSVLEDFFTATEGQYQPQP

Experiment [2] concerns the target Dual specificity mitogen-activated protein kinase kinase 2 (Homo sapiens) (UniProt P36507). Put plainly: Selectivity interaction (Ambit KINOMEscan and KiNATiv profiling in Jurkat cells) EUB0000090b MAP2K2. The class given is cell-based. As to conditions: at 1 µM.
Experiment [3] addresses T1, Serine/threonine-protein kinase D1 (Homo sapiens) (UniProt Q15139).
T1 sequence (whole entry): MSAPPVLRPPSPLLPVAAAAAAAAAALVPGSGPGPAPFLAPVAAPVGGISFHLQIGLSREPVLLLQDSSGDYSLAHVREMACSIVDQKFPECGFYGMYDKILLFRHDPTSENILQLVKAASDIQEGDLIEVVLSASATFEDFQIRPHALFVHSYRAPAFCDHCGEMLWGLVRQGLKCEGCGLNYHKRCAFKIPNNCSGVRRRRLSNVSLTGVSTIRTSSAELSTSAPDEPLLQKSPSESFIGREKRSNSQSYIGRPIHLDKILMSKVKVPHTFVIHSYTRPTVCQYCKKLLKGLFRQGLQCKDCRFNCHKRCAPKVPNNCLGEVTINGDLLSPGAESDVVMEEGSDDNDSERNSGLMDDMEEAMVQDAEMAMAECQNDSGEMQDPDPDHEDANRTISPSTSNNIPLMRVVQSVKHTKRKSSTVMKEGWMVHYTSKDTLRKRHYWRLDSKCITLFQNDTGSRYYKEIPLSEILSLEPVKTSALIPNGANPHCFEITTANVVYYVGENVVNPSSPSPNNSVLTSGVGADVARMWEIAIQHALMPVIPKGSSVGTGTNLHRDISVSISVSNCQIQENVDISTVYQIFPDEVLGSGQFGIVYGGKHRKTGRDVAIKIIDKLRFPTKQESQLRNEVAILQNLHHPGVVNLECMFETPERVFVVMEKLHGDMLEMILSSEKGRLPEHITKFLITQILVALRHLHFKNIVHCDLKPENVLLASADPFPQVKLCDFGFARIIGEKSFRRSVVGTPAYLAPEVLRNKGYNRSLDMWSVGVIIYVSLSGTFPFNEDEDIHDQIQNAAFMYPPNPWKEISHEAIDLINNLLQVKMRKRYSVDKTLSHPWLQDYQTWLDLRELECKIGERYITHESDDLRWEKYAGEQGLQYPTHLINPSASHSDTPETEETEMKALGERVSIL
Put plainly: Selectivity interaction (KinomeScan (DiscoverX)) EUB0001079a PRKD1. As to conditions: at 1 µM.

The target of experiment [4] is T2, Serine/threonine-protein kinase TAO2 (Homo sapiens) (UniProt Q9UL54).
T2 sequence (whole entry): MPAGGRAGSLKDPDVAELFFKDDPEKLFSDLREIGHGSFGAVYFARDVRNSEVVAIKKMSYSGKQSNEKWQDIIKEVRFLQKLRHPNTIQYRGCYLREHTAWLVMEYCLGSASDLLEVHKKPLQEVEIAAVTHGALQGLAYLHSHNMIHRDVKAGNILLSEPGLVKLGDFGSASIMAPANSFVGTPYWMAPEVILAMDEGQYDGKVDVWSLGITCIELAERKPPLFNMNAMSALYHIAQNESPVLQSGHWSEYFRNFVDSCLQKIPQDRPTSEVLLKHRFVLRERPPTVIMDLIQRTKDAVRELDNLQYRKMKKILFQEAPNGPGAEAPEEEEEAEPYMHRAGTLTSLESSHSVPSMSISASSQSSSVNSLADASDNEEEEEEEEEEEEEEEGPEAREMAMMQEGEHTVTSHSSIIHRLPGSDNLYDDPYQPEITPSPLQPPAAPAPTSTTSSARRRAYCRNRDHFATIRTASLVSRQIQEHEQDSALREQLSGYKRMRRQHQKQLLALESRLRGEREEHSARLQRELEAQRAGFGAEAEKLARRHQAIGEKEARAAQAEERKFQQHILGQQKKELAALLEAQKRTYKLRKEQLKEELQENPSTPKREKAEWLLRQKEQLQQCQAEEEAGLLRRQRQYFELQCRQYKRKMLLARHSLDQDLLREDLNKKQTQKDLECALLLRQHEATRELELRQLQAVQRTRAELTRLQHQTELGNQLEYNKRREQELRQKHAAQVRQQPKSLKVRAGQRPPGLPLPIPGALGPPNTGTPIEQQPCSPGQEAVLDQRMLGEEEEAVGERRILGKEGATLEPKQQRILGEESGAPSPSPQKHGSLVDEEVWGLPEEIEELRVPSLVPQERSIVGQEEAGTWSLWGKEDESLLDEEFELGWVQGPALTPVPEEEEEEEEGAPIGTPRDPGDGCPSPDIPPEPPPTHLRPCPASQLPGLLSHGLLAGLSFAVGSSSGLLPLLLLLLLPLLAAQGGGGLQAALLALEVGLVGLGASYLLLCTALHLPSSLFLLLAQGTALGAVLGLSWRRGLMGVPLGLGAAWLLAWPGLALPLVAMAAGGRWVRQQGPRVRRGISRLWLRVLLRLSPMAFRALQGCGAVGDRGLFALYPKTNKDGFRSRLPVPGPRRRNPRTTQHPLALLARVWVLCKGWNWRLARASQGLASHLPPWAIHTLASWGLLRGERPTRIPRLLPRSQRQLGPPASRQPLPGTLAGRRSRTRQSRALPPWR
Nature of the experiment: Selectivity interaction (KinomeScan (DiscoverX)) EUB0001049a TAOK2. To be noted: at 1 µM.

The target in experiment [5] is CDK7/Cyclin H/MNAT1 (Homo sapiens) (UniProt P51946+P50613+P51948). Nature of the experiment: Selectivity interaction (ProQinase) EUB0000171b CDK7. The format is protein-complex assay.
Experiment [6] addresses T3, Serine/threonine-protein kinase 17A (Homo sapiens) (UniProt Q9UEE5).
T3 sequence (whole entry): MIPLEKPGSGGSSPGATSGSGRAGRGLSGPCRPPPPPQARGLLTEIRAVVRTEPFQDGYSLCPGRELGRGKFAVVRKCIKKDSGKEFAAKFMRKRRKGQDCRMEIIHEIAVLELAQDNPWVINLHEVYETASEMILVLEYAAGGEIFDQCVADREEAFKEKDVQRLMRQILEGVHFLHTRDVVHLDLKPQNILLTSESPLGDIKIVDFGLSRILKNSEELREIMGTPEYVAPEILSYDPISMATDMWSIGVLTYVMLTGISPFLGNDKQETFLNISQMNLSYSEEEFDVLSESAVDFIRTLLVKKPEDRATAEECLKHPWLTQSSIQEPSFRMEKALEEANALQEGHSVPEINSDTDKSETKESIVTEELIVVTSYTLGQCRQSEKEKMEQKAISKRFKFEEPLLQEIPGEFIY
Put plainly: Selectivity interaction (Upstate Kinase Profiler service (Millipore)) EUB0000056c STK17A. To be noted: at 1 µM.

SMILES strings stand for the structures.

Dual specificity mitogen-activated protein kinase kinase 2 (Homo sapiens), sequence (P36507 whole entry): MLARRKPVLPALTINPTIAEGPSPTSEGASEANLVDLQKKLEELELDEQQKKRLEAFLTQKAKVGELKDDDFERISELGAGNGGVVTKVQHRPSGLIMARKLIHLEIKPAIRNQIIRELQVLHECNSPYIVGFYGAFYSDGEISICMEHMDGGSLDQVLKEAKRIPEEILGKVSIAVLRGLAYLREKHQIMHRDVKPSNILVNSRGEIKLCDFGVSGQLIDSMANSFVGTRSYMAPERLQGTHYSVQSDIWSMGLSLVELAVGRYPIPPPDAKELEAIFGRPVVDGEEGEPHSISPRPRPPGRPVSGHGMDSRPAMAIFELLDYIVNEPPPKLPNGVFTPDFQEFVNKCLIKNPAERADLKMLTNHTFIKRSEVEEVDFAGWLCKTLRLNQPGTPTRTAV
Activated CDC42 kinase 1, sequence (Q07912 whole entry, looked up): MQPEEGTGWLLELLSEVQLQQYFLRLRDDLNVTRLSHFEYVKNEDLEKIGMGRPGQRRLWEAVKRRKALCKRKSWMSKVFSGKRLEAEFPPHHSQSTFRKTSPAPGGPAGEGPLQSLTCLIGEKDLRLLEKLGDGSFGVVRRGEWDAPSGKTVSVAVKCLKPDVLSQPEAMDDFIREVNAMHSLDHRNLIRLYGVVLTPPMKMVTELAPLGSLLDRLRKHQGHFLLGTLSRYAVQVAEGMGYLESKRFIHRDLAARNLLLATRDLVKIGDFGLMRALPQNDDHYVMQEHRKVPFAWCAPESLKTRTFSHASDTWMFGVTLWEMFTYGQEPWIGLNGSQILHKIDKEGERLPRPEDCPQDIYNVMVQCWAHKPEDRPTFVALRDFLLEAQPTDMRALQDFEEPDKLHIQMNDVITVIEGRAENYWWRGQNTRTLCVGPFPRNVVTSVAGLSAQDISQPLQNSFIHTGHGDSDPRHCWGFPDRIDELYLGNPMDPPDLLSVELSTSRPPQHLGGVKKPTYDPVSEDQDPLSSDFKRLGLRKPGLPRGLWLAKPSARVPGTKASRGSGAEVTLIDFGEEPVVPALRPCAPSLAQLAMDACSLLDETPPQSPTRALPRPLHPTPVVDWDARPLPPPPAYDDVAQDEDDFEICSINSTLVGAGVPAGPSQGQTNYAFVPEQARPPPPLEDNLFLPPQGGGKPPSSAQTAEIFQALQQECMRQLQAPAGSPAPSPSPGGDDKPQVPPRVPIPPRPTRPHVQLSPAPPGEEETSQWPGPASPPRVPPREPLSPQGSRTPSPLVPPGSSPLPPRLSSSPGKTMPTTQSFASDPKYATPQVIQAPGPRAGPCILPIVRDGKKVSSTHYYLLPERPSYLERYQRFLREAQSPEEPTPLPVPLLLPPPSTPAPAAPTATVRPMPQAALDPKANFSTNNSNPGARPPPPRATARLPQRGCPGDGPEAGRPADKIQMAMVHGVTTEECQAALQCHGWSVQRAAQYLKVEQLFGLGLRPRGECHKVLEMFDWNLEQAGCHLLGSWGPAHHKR

On to `Cn1cc(Nc2nccc(N3CC4CCC(C3)N4C(=O)[C@@H]3CC3(F)F)n2)cn1`, for which, at Activated CDC42 kinase 1, the % of inhibition was determined as 82%.
Turning to `C=CC(=O)Nc1ccc(C(=O)Nc2[nH]nc3c2CN(C(=O)N[C@H](CN(C)C)c2ccccc2)C3(C)C)cc1`, the % of engagement in experiment [1] was -3.6%.
For `CN(C)C/C=C/C(=O)Nc1ccc(C(=O)N2CCCC(Nc3ncc(Cl)c(-c4c[nH]c5ccccc45)n3)C2)cc1` (stereo not drawn), in experiment [2], the % of control was determined as 93%.
As for `Nc1cnc(N2CCc3cc(S(=O)(=O)Nc4c(F)cc(Cl)cc4F)cc(N4CCCC4=O)c32)nc1` [TP-020n], the % of control in experiment [3] turned out to be 83%.
In the case of `COc1cc(Nc2nc(C)cc(-c3cnn4nc(OC)ccc34)n2)cc(C(F)(F)F)c1`, in experiment [4], the % of control amounted to 77%.
Turning to `C=CC(=O)Nc1cccc(C(=O)Nc2ccc(Nc3cc(-c4[nH]c(SC)nc4C)ccn3)cc2)c1`, the % of control turned out to be 89% in experiment [5] (at 1 µM) and 86% in experiment [5] (at 5 µM).
For the molecule `Cc1ccc(-c2ccc3c(ccc4sc5c(c43)NC[C@@H](C)NC5=O)n2)cn1`, in experiment [6], the % of inhibition worked out at 88%.
